The source of these data is patent publication US20250313548A1 (Actio Biosciences, Inc., priority 2023, published 2025).

This experiment deals with human, KCNT1 (Homo sapiens (Human), UniProt Q5JUK3). Put plainly: FLIPR Tl/K Flux Assay. Format: cell-based. Particulars: HEK293 cells stably expressing human KCNT1; Tl+ flux stimulated with EC80 of agonist Loxapine. Put shortly: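 HEK293 cells stably expressing human KCNT1 were loaded with FLIPR potassium dye in HEPES/HBSS pH 7.4 with 5 mM probenecid, 1 h at 25 °C, then given test compound for 30 min at 25 °C. Tl+ flux was triggered with chloride-free buffer containing Tl+ and EC80 loxapine and read 160 s. IC50 came from Hill fits of % inhibition.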
human, KCNT1, sequence (Q5JUK3 whole entry): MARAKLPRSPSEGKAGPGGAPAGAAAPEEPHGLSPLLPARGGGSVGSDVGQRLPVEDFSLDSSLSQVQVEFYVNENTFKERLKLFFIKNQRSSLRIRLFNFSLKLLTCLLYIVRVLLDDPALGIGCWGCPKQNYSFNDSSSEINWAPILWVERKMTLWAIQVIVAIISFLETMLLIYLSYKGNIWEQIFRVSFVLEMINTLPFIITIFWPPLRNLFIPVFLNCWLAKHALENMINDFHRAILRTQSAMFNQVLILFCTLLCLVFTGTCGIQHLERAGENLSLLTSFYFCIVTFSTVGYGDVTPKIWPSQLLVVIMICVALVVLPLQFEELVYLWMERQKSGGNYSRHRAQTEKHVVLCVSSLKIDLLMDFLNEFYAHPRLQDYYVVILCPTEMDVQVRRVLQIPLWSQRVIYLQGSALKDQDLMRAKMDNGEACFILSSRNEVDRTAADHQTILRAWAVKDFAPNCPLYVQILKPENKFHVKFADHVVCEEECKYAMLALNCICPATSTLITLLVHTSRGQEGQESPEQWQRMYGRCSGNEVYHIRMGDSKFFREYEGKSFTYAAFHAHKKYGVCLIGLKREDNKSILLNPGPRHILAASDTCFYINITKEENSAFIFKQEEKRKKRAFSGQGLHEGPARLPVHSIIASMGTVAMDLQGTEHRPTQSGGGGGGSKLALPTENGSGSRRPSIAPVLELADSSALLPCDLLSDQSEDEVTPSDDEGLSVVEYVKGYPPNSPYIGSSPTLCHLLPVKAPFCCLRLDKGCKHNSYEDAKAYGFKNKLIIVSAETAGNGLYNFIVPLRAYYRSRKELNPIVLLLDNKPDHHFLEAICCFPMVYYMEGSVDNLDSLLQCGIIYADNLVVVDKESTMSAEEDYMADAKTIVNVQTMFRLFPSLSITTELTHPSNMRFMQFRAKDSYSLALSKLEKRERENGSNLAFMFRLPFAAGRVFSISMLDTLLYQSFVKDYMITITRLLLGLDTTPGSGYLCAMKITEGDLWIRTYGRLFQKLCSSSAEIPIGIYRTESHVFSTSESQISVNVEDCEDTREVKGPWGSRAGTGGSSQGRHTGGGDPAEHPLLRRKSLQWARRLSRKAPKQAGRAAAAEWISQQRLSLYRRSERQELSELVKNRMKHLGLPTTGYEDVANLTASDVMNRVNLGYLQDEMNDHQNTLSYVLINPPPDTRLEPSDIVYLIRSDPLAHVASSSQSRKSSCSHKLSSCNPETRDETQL
What is called IC50 is the concentration that inhibits the measured activity by half. A high value points to weaker potency in that assay. Compound `O=C(N[C@H]1CCCc2oc(-c3ccnc(C(F)(F)F)c3)nc21)c1cccc(C(F)(F)F)c1` [Compound I-251a, (S)-3-(Trifluoromethyl)-N-(2-(2-(trifluoromethyl)pyridin-4-yl)-4,5,6,7-tetrahydrobenzo[d]oxazol-4-yl)benzamide] came in with an IC50 of under 250 nM.
Next, `N#Cc1cccc(C(=O)N[C@H]2CCn3cc(-c4ccnc(C(F)(F)F)c4)cc32)c1` (stereo in doubt) [Compound I-276a, 3-Cyano-N-(6-(2-(trifluoromethyl)pyridin-4-yl)-2,3-dihydro-1H-pyrrolizin-1-yl)benzamide]: under 250 nM; `COc1cc(-c2cc3n(n2)CCCC[C@@H]3NC(=O)c2cc(C(F)(F)F)nn2C)ccn1` [Compound I-126a, (S)—N-(2-(2-Methoxypyridin-4-yl)-5,6,7,8-tetrahydro-4H-pyrazolo[1,5-a]azepin-4-yl)-1-methyl-3-(trifluoromethyl)-1H-pyrazole-5-carboxamide]: under 250 nM.
As to `CCOc1cc(-n2cc3c(n2)CCCCC3NC(=O)c2cccc(C)c2)ccn1` (racemic) [Compound I-59, (rac)-N-(2-(2-Ethoxypyridin-4-yl)-2,4,5,6,7,8-hexahydrocyclohepta[c]pyrazol-4-yl)-3-methylbenzamide], the IC50 is under 250 nM.
The result for `O=C(N[C@H]1CCCn2nc(-c3ccnc(C(F)(F)F)c3)cc21)c1cnn(C(F)(F)F)c1C(F)(F)F` [Compound I-529a, (S)-1,5-bis(trifluoromethyl)-N-(2-(2-(trifluoromethyl)pyridin-4-yl)-4,5,6,7-tetrahydropyrazolo[1,5-a]pyridin-4-yl)-1H-pyrazole-4-carboxamide] reads under 250 nM.
The result for `COc1cc(-c2cc3n(n2)CC[C@@H]3NC(=O)c2cnn(C(F)(F)F)c2)ccn1` [Compound I-255a, (S)-N-(2-(2-Methoxypyridin-4-yl)-5,6-dihydro-4H-pyrrolo[1,2-b]pyrazol-4-yl)-1-(trifluoromethyl)-1H-pyrazole-4-carboxamide] reads under 250 nM.
The result for `C#Cc1cc(-n2cc3c(n2)CC[C@@H]3NC(=O)c2cc(C(F)(F)F)nn2C)ccn1` [Compound I-78a] reads under 250 nM; that for `O=C(N[C@@H]1CCCCc2nn(-c3ccnc(C(F)(F)F)c3)cc21)c1cc(Cl)cc(C(F)(F)F)c1` [Compound I-109b], over 1000 nM; that for `CC(C)Oc1cc(C(=O)N[C@H]2CCn3nc(-c4cc(C(F)(F)F)ncc4F)cc32)ccn1` [Compound I-546a, (S)-N-(2-(5-Fluoro-2-(trifluoromethyl)pyridin-4-yl)-5,6-dihydro-4H-pyrrolo[1,2-b]pyrazol-4-yl)-2-isopropoxyisonicotinamide], under 250 nM.
In the case of `Cn1nc(C(F)(F)F)cc1C(=O)N[C@@H]1CCCc2cn(-c3ccnc(C(F)(F)F)c3)nc21` [Compound I-87b], the IC50 is over 1000 nM.
The result for `O=C(N[C@@H]1CCc2nn(-c3ccnc(C(F)(F)F)c3)cc21)c1cc(F)cc(F)c1` [Compound I-100b] reads over 1000 nM.
The result for `Cc1nc(C(F)(F)F)oc1C(=O)N[C@H]1CCc2cnc(-c3ccnc(C(F)(F)F)c3)cc21` [Compound I-192a, (S)-4-Methyl-2-(trifluoromethyl)-N-(3-(2-(trifluoromethyl)pyridin-4-yl)-6,7-dihydro-5H-cyclopenta[c]pyridin-5-yl)oxazole-5-carboxamide] reads 250 to 500 nM; that for `COc1cc(F)cc(C(=O)N[C@H]2CCn3nc(-c4ccnc(C(F)(F)F)c4)cc32)c1` [Compound I-567a, (S)-3-Fluoro-5-methoxy-N-(2-(2-(trifluoromethyl)pyridin-4-yl)-5,6-dihydro-4H-pyrrolo[1,2-b]pyrazol-4-yl)benzamide], under 250 nM; that for `O=C(N[C@H]1CCCn2nc(-c3ccnc(C(F)(F)F)c3)cc21)c1ccnc(C(F)(F)F)n1` [Compound I-327a, (S)-2-(Trifluoromethyl)-N-(2-(2-(trifluoromethyl)pyridin-4-yl)-4,5,6,7-tetrahydropyrazolo[1,5-a]pyridin-4-yl)pyrimidine-4-carboxamide], under 250 nM.
As for `Cc1cnc(C(F)(F)F)cc1-n1cc2c(n1)CCC[C@@H]2NC(=O)c1cc(C(F)(F)F)nn1C` [Compound I-445a], the IC50 is under 250 nM.
The result for `N#Cc1cccc(C(=O)N[C@H]2CCCn3nc(-c4ccnc(C5CC5)c4)cc32)c1` [Compound I-449a] reads under 250 nM.
Compound `O=C(N[C@H]1CCCc2oc(-c3ccnc(C(F)(F)F)c3)nc21)C12CC(C(F)(F)F)(C1)C2` [Compound I-507a, (S)-3-(Trifluoromethyl)-N-(2-(2-(trifluoromethyl)pyridin-4-yl)-4,5,6,7-tetrahydrobenzo[d]oxazol-4-yl)bicyclo[1.1.1]pentane-1-carboxamide] showed an IC50 of under 250 nM.
On to `COc1cc(-c2cc3n(n2)CCC[C@@H]3NC(=O)c2cccc(C#N)c2)c(C)cn1` [Compound I-222a, (S)-3-Cyano-N-(2-(2-methoxy-5-methylpyridin-4-yl)-4,5,6,7-tetrahydropyrazolo[1,5-a]pyridin-4-yl)benzamide], for which the IC50 is under 250 nM.
The result for `COc1cc(-c2cc3n(n2)CC[C@H]3NC(=O)c2cc(C(F)(F)F)nn2C)c(C(F)(F)F)cn1` [Compound I-172b] reads over 1000 nM.
The result for `COc1cc(-c2cc3n(n2)CCC3NC(=O)c2nc(C(F)(F)F)nn2C)ccn1` (single isomer, unassigned) [Compound I-473] reads over 1000 nM; that for `Cc1cnc(C(F)(F)F)cc1-c1cc2n(n1)CCC[C@@H]2NC(=O)c1nc(C(F)(F)F)nn1C` [Compound I-303a, (S)-1-Methyl-N-(2-(5-methyl-2-(trifluoromethyl)pyridin-4-yl)-4,5,6,7-tetrahydropyrazolo[1,5-a]pyridin-4-yl)-3-(trifluoromethyl)-1H-1,2,4-triazole-5-carboxamide], under 250 nM; that for `Cn1nc(C(F)(F)F)cc1C(=O)N[C@@H]1CCCc2cc(-c3ccnc(C(F)(F)F)c3)[nH]c21` [Compound I-475b], over 1000 nM.
Next, `COc1cc(-c2cc3n(n2)CC[C@@H]3NC(=O)c2ccc(F)c(C#N)c2)ccn1` [Compound I-257a, (S)-3-Cyano-4-fluoro-N-(2-(2-methoxypyridin-4-yl)-5,6-dihydro-4H-pyrrolo[1,2-b]pyrazol-4-yl)benzamide]: under 250 nM; `N#Cc1cc(F)cc(C(=O)N[C@H]2CCn3nc(-c4ccnc(C(F)(F)F)c4)cc32)c1` [Compound I-323a, (S)-3-Cyano-5-fluoro-N-(2-(2-(trifluoromethyl)pyridin-4-yl)-5,6-dihydro-4H-pyrrolo[1,2-b]pyrazol-4-yl)benzamide]: under 250 nM; `N#Cc1cccc(C(=O)N[C@H]2CCCn3nc(-c4ccnc(C(F)(F)F)c4)cc32)c1` [Compound I-128a, (S)-3-Cyano-N-(2-(2-(trifluoromethyl)pyridin-4-yl)-4,5,6,7-tetrahydropyrazolo[1,5-a]pyridin-4-yl)benzamide]: under 250 nM.
Take `Cc1cc(F)cc(C(=O)N[C@H]2CCc3nn(-c4ccnc(C(F)(F)F)c4)cc32)c1` (single isomer, unassigned) [Compound I-384a]: the IC50 was under 250 nM.
The result for `CCOc1cc(-n2cc3c(n2)CC[C@@H]3NC(=O)c2cc(F)cc(F)c2)ccn1` [Compound I-337a, (S)-N-(2-(2-Ethoxypyridin-4-yl)-2,4,5,6-tetrahydrocyclopenta[c]pyrazol-4-yl)-3,5-difluorobenzamide] reads under 250 nM.
The compound `COc1cc(C(=O)N[C@H]2CCCn3nc(-c4ccnc(C(F)(F)F)c4)cc32)ccn1` [Compound I-330a, (S)-2-Methoxy-N-(2-(2-(trifluoromethyl)pyridin-4-yl)-4,5,6,7-tetrahydropyrazolo[1,5-a]pyridin-4-yl)isonicotinamide] had an IC50 of under 250 nM.
The result for `O=C(N[C@H]1CCCn2nc(-c3ccnc(C(F)(F)F)c3)nc21)c1cncc(C(F)(F)F)n1` [Compound I-215a, (S)-6-(Trifluoromethyl)-N-(2-(2-(trifluoromethyl)pyridin-4-yl)-5,6,7,8-tetrahydro-[1,2,4]triazolo[1,5-a]pyridin-8-yl)pyrazine-2-carboxamide] reads under 250 nM; that for `Cc1cc(C#N)cc(C(=O)N[C@H]2CCn3nc(-c4ccnc(C(F)(F)F)c4)cc32)c1` [Compound I-334a, (S)-3-Cyano-5-methyl-N-(2-(2-(trifluoromethyl)pyridin-4-yl)-5,6-dihydro-4H-pyrrolo[1,2-b]pyrazol-4-yl)benzamide], under 250 nM; that for `O=C(N[C@H]1CCCc2cnc(-c3ccnc(C(F)(F)F)c3)cc21)c1cccc(C(F)(F)F)c1` [Compound I-392a], under 250 nM.
Next, `COc1cc(-c2cc3n(n2)CC[C@@H]3NC(=O)c2cnc(C(F)(F)F)cn2)c(F)cn1` [Compound I-575a, (S)-N-(2-(5-Fluoro-2-methoxypyridin-4-yl)-5,6-dihydro-4H-pyrrolo[1,2-b]pyrazol-4-yl)-5-(trifluoromethyl)pyrazine-2-carboxamide]: under 250 nM; `Cc1cc(C(=O)N[C@H]2CCc3nn(-c4ccnc(C(F)(F)F)c4)cc32)cc(C(F)(F)F)c1` [Compound I-373a]: under 250 nM.
Next, `N#Cc1cc(C(=O)N[C@H]2CCCCn3nc(-c4ccnc(C(F)(F)F)c4)cc32)ccc1F` [Compound I-277a, (S)-3-Cyano-4-fluoro-N-(2-(2-(trifluoromethyl)pyridin-4-yl)-5,6,7,8-tetrahydro-4H-pyrazolo[1,5-a]azepin-4-yl)benzamide]: under 250 nM.
For `CCOc1cc(-n2cc3c(n2)CCCC3NC(=O)c2cc(C(F)(F)F)nn2CC)ccn1` (racemic) [Compound I-55, (rac)-N-(2-(2-Ethoxypyridin-4-yl)-4,5,6,7-tetrahydro-2H-indazol-4-yl)-1-ethyl-3-(trifluoromethyl)-1H-pyrazole-5-carboxamide], the IC50 was under 250 nM.
